In PubChem BioAssay AID330 (DTP/NCI, 2004):
Several values for one entry are separate records, joined by “and”; a condition that tells them apart may be missing. Identical values can stand only once. Inconclusive results and toxic doses are left out. Rule for the calls: active = survival T/C of 150% or more; inactive = T/C below 125% in these data.

System: P388 leukemia ip, CD2F1 mice, survival T/C
Assay: NCI In Vivo Anticancer Drug Screen. Data for tumor model P388 Leukemia (intraperitoneal) in CD2F1 (CDF1) mice
Settings: endpoint: median survival time, higher = longer survival
Procedure, shortened: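 Mice carrying the transplanted tumor received test compound or vehicle. Survival was recorded in each group, and the value is the treated-group measurement divided by that of the vehicle-treated control group.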

[1] = dose: 60.0 mg/kg/injection, schedule: Q01DX005 (ip), vehicle: saline with Tween-80
[2] = dose: 120.0 mg/kg/injection, schedule: Q01DX005 (ip), vehicle: saline with Tween-80
[3] = dose: 240.0 mg/kg/injection, schedule: Q01DX005 (ip), vehicle: saline with Tween-80
[4] = dose: 50.0 mg/kg/injection, schedule: Q01DX005 (ip), vehicle: saline with Tween-80
[5] = dose: 100.0 mg/kg/injection, schedule: Q01DX005 (ip), vehicle: saline with Tween-80
[6] = dose: 200.0 mg/kg/injection, schedule: Q01DX005 (ip), vehicle: saline with Tween-80
[7] = dose: 50.0 mg/kg/injection, schedule: Q01DX009 (ip), vehicle: saline with Tween-80
[8] = dose: 100.0 mg/kg/injection, schedule: Q01DX009 (ip), vehicle: saline with Tween-80

Measured: T/C

NS(=O)(=O)c1ncc(C(=O)N2CCN(Cc3ccccc3)CC2)[nH]1
inactive: [1] 103 % of control | [2] 107 % of control | [3] 100 % of control

CCCCCCCCCCCCCCCc1cc(O)c(CC=C(C)C)c(=O)o1 (tested in a mixture with another compound)
inactive: dose: 82.5 mg/kg/injection, schedule: Q01DX005 (ip), vehicle: Klucel (hydroxypropylcellulose) (HPC) 98 % of control | dose: 165.0 mg/kg/injection, schedule: Q01DX005 (ip), vehicle: Klucel (hydroxypropylcellulose) (HPC) 97 % of control | dose: 330.0 mg/kg/injection, schedule: Q01DX005 (ip), vehicle: Klucel (hydroxypropylcellulose) (HPC) 105 % of control

COC(=O)[C@H]1[C@H]2C[C@@H]3c4[nH]c5cc(OC)ccc5c4CCN3C[C@H]2C[C@@H](OC(=O)c2cc(OC)c(OC)c(OC)c2)[C@@H]1OC
inactive: dose: 0.25 mg/kg/injection, schedule: Q01DX009 (ip), vehicle: Klucel (hydroxypropylcellulose) (HPC) 100 % of control | dose: 0.5 mg/kg/injection, schedule: Q01DX009 (ip), vehicle: Klucel (hydroxypropylcellulose) (HPC) 97 % of control | dose: 1.0 mg/kg/injection, schedule: Q01DX009 (ip), vehicle: Klucel (hydroxypropylcellulose) (HPC) 97 % of control | dose: 2.0 mg/kg/injection, schedule: Q01DX009 (ip), vehicle: Klucel (hydroxypropylcellulose) (HPC) 95 % of control | dose: 4.0 mg/kg/injection, schedule: Q01DX009 (ip), vehicle: Klucel (hydroxypropylcellulose) (HPC) 96 % of control

COc1ccc(S(=O)(=O)N/N=C\c2cc([N+](=O)[O-])ccc2O)c(OC)c1OC
inactive: [4] 107 % of control | [5] 101 % of control | [6] 94 % of control

CN1C(c2ccccc2)=C(C#N)C(=O)CC(c2ccccc2)N1C (stereo unspecified)
inactive: dose: 5.0 mg/kg/injection, schedule: Q01DX005 (ip), vehicle: saline with Tween-80 102 % of control | dose: 10.0 mg/kg/injection, schedule: Q01DX005 (ip), vehicle: saline with Tween-80 105 % of control | dose: 20.0 mg/kg/injection, schedule: Q01DX005 (ip), vehicle: saline with Tween-80 102 % of control | dose: 40.0 mg/kg/injection, schedule: Q01DX005 (ip), vehicle: saline with Tween-80 102 % of control | [4] 101 % of control | [1] 120 % of control | [5] 93 % of control | [2] 103 % of control | [6] 104 % of control | [3] 94 % of control

CCn1c2ccccc2c2cc(N=Nc3ccc4c(c3)c3ccccc3n4CC)ccc21
inactive: [7] 105 % of control | [8] 113 % of control

O=C1Nc2c(ccc3c2NCCC3)C2CCCC12 (stereo unspecified)
inactive: dose: 100.0 mg/kg/injection, schedule: Q01DX001 (ip), vehicle: saline with Tween-80 94 % of control | dose: 200.0 mg/kg/injection, schedule: Q01DX001 (ip), vehicle: saline with Tween-80 94 % of control | dose: 400.0 mg/kg/injection, schedule: Q01DX001 (ip), vehicle: saline with Tween-80 90 % of control

O=S(=O)(Nc1nccs1)c1ccc(N=Cc2c3ccccc3nc3cc(Cl)ccc23)cc1
inactive: [4] 94 % of control | [5] 93 % of control | [6] 96 % of control

CC(O)C(NC(=O)OC(C)(C)C)C(=O)O (stereo unspecified)
inactive: dose: 50.0 mg/kg/injection, schedule: Q01DX005 (ip), vehicle: saline 103 % of control | dose: 100.0 mg/kg/injection, schedule: Q01DX005 (ip), vehicle: saline 104 % of control | dose: 200.0 mg/kg/injection, schedule: Q01DX005 (ip), vehicle: saline 102 % of control

N#CC1=C(Nc2ccccc2Cl)SC(c2ccccc2O)NC1=O (stereo unspecified)
inactive: [1] 103 % of control | [2] 102 % of control | [3] 96 % of control

N#CCC1CCCC1=O (stereo unspecified)
inactive: [7] 103 % of control | [8] 99 % of control

Cc1cccc(C)c1NC1c2ccccc2C=Cc2ccccc21
inactive: [7] 87 % of control | [8] 89 % of control

Cc1cccc(C)c1NC(=O)NNC(N)=S
inactive: [7] 97 % of control

Cc1nc2[nH][nH]c(=O)c2nc1C
inactive: [8] 100 % of control | dose: 100.0 mg/kg/injection, schedule: Q01DX009 (ip), vehicle: saline 108 % of control | dose: 200.0 mg/kg/injection, schedule: Q01DX009 (ip), vehicle: saline with Tween-80 96 % of control | dose: 200.0 mg/kg/injection, schedule: Q01DX009 (ip), vehicle: saline 102 % of control | dose: 400.0 mg/kg/injection, schedule: Q01DX009 (ip), vehicle: saline with Tween-80 94 % of control | dose: 400.0 mg/kg/injection, schedule: Q01DX009 (ip), vehicle: saline 102 % of control | dose: 600.0 mg/kg/injection, schedule: Q01DX009 (ip), vehicle: saline with Tween-80 94 % of control | dose: 600.0 mg/kg/injection, schedule: Q01DX009 (ip), vehicle: saline 98 % of control

C[n+]1ccccc1/C=C/c1cccc([N+](=O)[O-])c1
inactive: dose: 5.0 mg/kg/injection, schedule: Q01DX009 (ip), vehicle: saline with Tween-80 100 % of control | dose: 10.0 mg/kg/injection, schedule: Q01DX009 (ip), vehicle: saline with Tween-80 109 % of control | dose: 20.0 mg/kg/injection, schedule: Q01DX009 (ip), vehicle: saline with Tween-80 100 % of control

CC(Cl)(c1ccccc1)C1OCCO1 (stereo unspecified)
inactive: [1] 100 % of control | [2] 101 % of control | [3] 102 % of control

CCCCCCCCCCCCCCCCON
inactive: dose: 50.0 mg/kg/injection, schedule: Q01DX009 (ip), vehicle: Klucel (hydroxypropylcellulose) (HPC) 103 % of control | dose: 100.0 mg/kg/injection, schedule: Q01DX009 (ip), vehicle: Klucel (hydroxypropylcellulose) (HPC) 111 % of control

O=[n+]1c2c(n([O-])c3cc(Cl)c(Cl)cc31)CCCC2
inactive: dose: 12.5 mg/kg/injection, schedule: Q01DX009 (ip), vehicle: saline with Tween-80 87 % of control | dose: 25.0 mg/kg/injection, schedule: Q01DX009 (ip), vehicle: saline with Tween-80 89 % of control | [7] 98 % of control and 86 % of control

C/C=C1\CN2CCC34c5ccccc5N(C)C35OCC4(C(=O)OC)C1CC25 (stereo unspecified)
inactive: dose: 5.25 mg/kg/injection, schedule: Q01DX005 (ip), vehicle: saline + Tween-80 + alcohol 100 % of control | dose: 10.5 mg/kg/injection, schedule: Q01DX005 (ip), vehicle: saline + Tween-80 + alcohol 92 % of control | dose: 21.0 mg/kg/injection, schedule: Q01DX005 (ip), vehicle: saline + Tween-80 + alcohol 98 % of control | dose: 42.0 mg/kg/injection, schedule: Q01DX005 (ip), vehicle: saline + Tween-80 + alcohol 96 % of control
